Source: US9695191B2, “Conformationally constrained, fully synthetic macrocyclic compounds” (POLYPHOR AG, priority 2009, dated 2017)
Where two headings read alike, the source gives them in different places.

What was measured:
[1] = human, 10 μM
Protocol: (§2) Example compounds were dissolved in DMSO/H2O 90:10 to a final concentration of 10 mM for plasma stability determination and metabolic stability determination.
(§3) Human plasma (3-5 donors, Blutspendedienst SRK, Basel) and CD-1 mouse plasma (mixed gender pool>50 animals, Innovative Research, CA, USA) are both sodium citrate stabilized. The assay is performed in triplicates at 10 μM compound concentration and 37° C. Samples are taken at 0, 15, 60, and 240 minutes and stopped by precipitation with 2 volumes of acetonitrile. The supernatant is collected, evaporated and reconstituted in a 5% acetonitrile solution to be analyzed by HPLC/MS/MS. The resulting peak area counts are expressed in percent of the 0 value and used to determine the endpoint stability in % and the half life T½ in minutes. In order to monitor assay integrity the degradation of propantheline is assayed with every experimental set

[2] = Metabolic stability, human microsomes; assay type: in vitro ADME; settings: 37° C.; for Metabolic Stability 60 min hum: % of the initial 0 minutes value at 60 min, 10 μM
Protocol: (§1) Microsomes from a human 50 donor mixed gender pool and 1:1 mixtures of microsomes from CD-1 mouse single-gender pools are purchased from Celsis (Belgium). The enzymatic reaction is performed in a buffer containing an NADPH regeneration system and microsomes with the following end concentrations: 100 mM potassium phosphate buffer (all from Sigma), 1 mg/mL glucose-6-phosphate, 1 mg/mL β-nicotinamide adenine dinucleotide phosphate (NADP), 0.65 mg/mL magnesium chloride, 0.8 units/mL of glucose-6-phosphate dehydrogenase (prediluted with 5 mM citrate buffer), 10 μM compound and 1 mg/ml microsomal protein. Compounds are incubated at 37° C. in duplicates and samples are taken after 0, 20 and 60 minutes. After acetonitrile precipitation (2 volumes) and HPLC/MS/MS analysis metabolic turnover is expressed in % of the initial 0 minutes value and half life T½ (min) is calculated. Verapamil for human and propranolol for mouse are used as reference and are assayed with every experimental set. • F. P. Guengerich, Analysis and Characterization of Enzymes; in: Principles and Methods of Toxicology; A. W. Hayes (Ed.) Raven Press: New York, 1989, 777-813. • R. Singh et al., In vitro metabolism of a potent HIV-protease inhibitor (141W94) using rat, monkey and human liver S9, Rapid Commun. Mass Spectrom. 1996, 10, 1019-1026. 5. Results

[3] = both, CD-1, mouse, 10 μM
Protocol: as §2, §3

[4] = Metabolic stability, CD-1 mouse microsomes; assay type: in vitro ADME; settings: 37° C.; for Metabolic Stability 60 min mouse: % of the initial 0 minutes value at 60 min, 10 μM
Protocol: as §1

[5] = molecular target: T1, 5-hydroxytryptamine 2B (5-HT2B) receptor (Homo sapiens, UniProt P41595); assay: Ca2+ assay (FLIPR), 5-hydroxytryptamine 2B (5-HT2B) receptor, agonist mode (percentage activation); assay type: cell-based
T1 construct: expressed in transfected cells; host or cells: Ca2+ optimized hematopoietic cell lines (rat)
T1 sequence (P41595 whole entry): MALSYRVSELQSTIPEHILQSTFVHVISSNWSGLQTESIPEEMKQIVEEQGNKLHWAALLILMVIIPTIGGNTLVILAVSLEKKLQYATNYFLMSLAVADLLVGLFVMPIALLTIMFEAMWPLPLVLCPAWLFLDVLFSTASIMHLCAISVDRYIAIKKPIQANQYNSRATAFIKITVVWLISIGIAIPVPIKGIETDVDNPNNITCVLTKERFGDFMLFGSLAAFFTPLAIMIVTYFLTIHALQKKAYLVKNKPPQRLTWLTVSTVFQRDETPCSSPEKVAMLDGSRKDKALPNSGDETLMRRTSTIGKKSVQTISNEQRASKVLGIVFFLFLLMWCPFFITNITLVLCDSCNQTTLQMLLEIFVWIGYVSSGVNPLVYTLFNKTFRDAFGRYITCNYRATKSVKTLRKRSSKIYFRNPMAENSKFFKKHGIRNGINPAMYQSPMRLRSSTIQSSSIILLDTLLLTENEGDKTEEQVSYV
Protocol: Dose dependent agonist and antagonist activities were determined. Percentage activation and percentage inhibition values were determined.
Percentage activation was determined upon initial addition of the sample compounds followed by 10 minutes incubation at 25° C. Following compound incubation, reference agonists were added at EC80 to determine percentage inhibition.
All handling of ligands were done to ensure proper control throughout the experiments.
HBSS was supplemented with 20 mM HEPES (4-(2-hydroxyethyl)-piperazin-1-ethansulfonic acid) and 2.5 mM Probenecid (Sigma P8761).
GPCR assays were performed using Ca^2+ optimized hematopoietic cell lines (rat) with cultures never exceeding 90% confluency. […] After seeding, the assay plates were incubated for forty-five (45) minutes at room temperature. After room temperature incubation, the assay plates were incubated at 37° C. 5% CO2 for 24 hours prior to assaying.
All GPCR assays were performed using Fluo-8 Ca^2+ dye. Ca^2+ dye was prepared at 1× dye concentration in GPCR assay buffer. […] The plates were incubated for 90 minutes at 30° C. 5% CO2 prior to FLIPR assay.
Compound plates were prepared to add 50 μL/well during the agonist assay mode. During the FLIPR assay, 50 μL/well from the compound plate was diluted 3-fold into the existing 100 μL/well from the dye loading step. Therefore all compounds were prepared as 3× the final concentration desired in the assay.
After completion of the first single addition assay run, assay plate was removed from the FLIPR Tetra and placed at 25° C. for seven (7) minutes before antagonist assay.
From the FLIPR data, with negative control correction enabled, the maximum statistic for each well was exported and percentage activation relative to Emax control was calculated.

[6] = Plasma stability, human plasma; settings: endpoint stability in % of the 0 value at 240 min, 10 μM, 37° C.
Protocol: as §2, §3

[7] = Plasma stability, CD-1 mouse plasma; settings: endpoint stability in % of the 0 value at 240 min, 10 μM, 37° C.
Protocol: as §2, §3

[8] = 10 μM compound, 1 mg/ml microsomal protein, sampling up to 60 min

Question: Which “Plasma Stability 240 min hum” value [1] does the source give for `CN(C)CC(=O)N[C@H]1C[C@H]2COc3ccc(F)cc3C(=O)N(C)[C@H](C(=O)NCCc3c[nH]c4ccccc34)CCC(=O)N(C)CC(=O)N2C1` [Ex. 16, (2S,11S,19aS)-2-{[2-(dimethylamino)acetyl]amino}-15-fluoro-N-[2-(1H-indol-3-yl)ethyl]-7,12-dimethyl-5,8,13-trioxo-2,3,6,7,8,9,10,11,12,13,19,19a-dodecahydro-1H,5H-pyrrolo [2,1-c][1,4,7,12]benzoxatriazacyclopentadecine-11-carboxamide] here?
Answer: 95%

Question: And the “Metabolic Stability 60 min hum” value [2]?
Answer: 31%

Question: What about the “Plasma Stability 240 min mouse” value [3] of the same compound?
Answer: 97%

Question: And the “Metabolic Stability 60 min mouse” value [4]?
Answer: 79%

Question: And the “5-HT2B receptor agonist activity [% activation at 12.5 μM]” value [5]?
Answer: 45%

Question: What does the source list for `CN1CC(=O)N2C[C@@H](NC(=O)OC(C)(C)C)C[C@H]2COc2ccc(F)cc2C(=O)N(C)[C@H](C(=O)NCCc2c[nH]c3ccccc23)CCC1=O` [Ex. 30, tert-butyl N-[(2S,11S,19aS)-15-fluoro-11-({[2-(1H-indol-3-yl)ethyl]amino}carbonyl)-7,12-dimethyl-5,8,13-trioxo-2,3,6,7,8,9,10,11,12,13,19,19a-dodecahydro-1H,5H-pyrrolo[2,1-c][1,4,7,12]benzoxatriazacyclopentadecin-2-yl]carbamate]?
Answer: Plasma Stability 240 min hum [1]: 85%; Metabolic Stability 60 min hum [2]: 2%; Plasma Stability 240 min mouse [3]: 100%; Metabolic Stability 60 min mouse [4]: 55%; 5-HT2B receptor agonist activity [% activation at 12.5 μM] [5]: 48%

Question: Which results are given for `CN1CC(=O)N2C[C@@H](NC(=O)Cc3c[nH]c4ccccc34)C[C@H]2COc2ccc(F)cc2C(=O)N(C)[C@H](C(=O)NCCc2c[nH]c3ccccc23)CCC1=O` [Ex. 12, (2S,11S,19aS)-15-fluoro-2-{[2-(1H-indol-3-yl)acetyl]amino}-N-[2-(1H-indol-3-yl)ethyl]-7,12-dimethyl-5,8,13-trioxo-2,3,6,7,8,9,10,11,12,13,19,19a-dodecahydro-1H,5H-pyrrolo [2,1-c][1,4,7,12]benzoxatriazacyclopentadecine-11-carboxamide]?
Answer: Plasma Stability 240 min hum [1]: 99%; Metabolic Stability 60 min hum [2]: 7%; Plasma Stability 240 min mouse [3]: 100%; Metabolic Stability 60 min mouse [4]: 33%; 5-HT2B receptor agonist activity [% activation at 12.5 μM] [5]: 36%

Question: With `CCCCC(=O)N[C@H]1C[C@H]2COc3ccc(F)cc3C(=O)N(C)[C@@H](C(=O)NCc3ccc4ccccc4c3)CCC(=O)N(C)CC(=O)N2C1` [Ex. 103, (2S,115,19aS)-15-fluoro-7,12-dimethyl-N-(2-naphthylmethyl)-5,8,13-trioxo-2-(pentanoylamino)-2,3,6,7,8,9,10,11,12,13,19,19a-dodecahydro-1H,5H-pyrrolo[2,1-c][1,4,7,12] benzoxatriazacyclopentadecine-11-carboxamide] as the compound, how does the “Plasma Stability 240 min hum” value [6] read?
Answer: 97%

Question: And the “Metabolic Stability T ½ [min] hum” value [2, 8]?
Answer: 35 min

Question: And the “Metabolic Stability 60 min hum” value [2]?
Answer: 22%

Question: And the “Metabolic Stability T ½ [min] mouse” value [4, 8]?
Answer: 36 min

Question: What about the “Metabolic Stability 60 min mouse” value [4] of the same compound?
Answer: 25%

Question: What about the “Plasma Stability 240 min mouse” value [7] of the same compound?
Answer: 75%

Question: For `CC(=O)N[C@H]1C[C@H]2COc3ccc(F)cc3C(=O)N(C)[C@H](C(=O)NCCc3c[nH]c4ccccc34)CCC(=O)N(C)CC(=O)N2C1` [Ex. 9, (2S,11S,19aS)-2-(acetylamino)-15-fluoro-N-[2-(1H-indol-3-yl)ethyl]-7,12-dimethyl-5,8,13-trioxo-2,3,6,7,8,9,10,11,12,13,19,19a-dodecahydro-1H,5H-pyrrolo[2,1-c][1,4,7,12] benzoxatriazacyclopentadecine-11-carboxamide], which “Plasma Stability 240 min hum” value [1] is on record?
Answer: 99%

Question: And the “Metabolic Stability 60 min hum” value [2]?
Answer: 20%

Question: What about the “Plasma Stability 240 min mouse” value [3] of the same compound?
Answer: 93%

Question: What about the “Metabolic Stability 60 min mouse” value [4] of the same compound?
Answer: 80%

Question: What about the “5-HT2B receptor agonist activity [% activation at 12.5 μM]” value [5] of the same compound?
Answer: 48%
